According to PubChem BioAssay AID1845194 (Molecular Pharmacology Branch, DTP, NCI, 2023):
Several values for one entry are separate records, joined by “and”; a condition that tells them apart may be missing. Identical values can stand only once.

System: 287954-098-R-J1 tumor spheroid viability
Experiment: Anticancer human tumor 287954-098-R-J1 patient-derived Ewing sarcoma cell line growth inhibition
Conditions: spheroids with HUVEC and MSC; for viability, T/C: stronger effect = lower value; active means viability on the fitted dose curve at most 10% of control; inactive means the rest
Summary of the method: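 Single agents and combinations were tested on spheroids built from tumor cells plus HUVEC and hMSC, at half-log dilutions starting at or near clinical Cmax, else 10 microM; final DMSO 0.25% (v/v).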

[1] = curve of first compound, second compound 1 µM
[2] = curve of first compound, second compound 3.16 µM
[3] = curve of first compound, second compound 10 µM
[4] = curve of first compound, second compound 31.6 µM
[5] = curve of first compound, second compound 100 µM
[6] = second compound 1 µM, first compound 0.0316 µM
[7] = second compound 1 µM, first compound 0.1 µM
[8] = second compound 1 µM, first compound 0.316 µM
[9] = second compound 1 µM, first compound 1 µM
[10] = second compound 1 µM, first compound 3.16 µM
[11] = second compound 1 µM, first compound 10 µM
[12] = second compound 3.16 µM, first compound 0.0316 µM
[13] = second compound 3.16 µM, first compound 0.1 µM
[14] = second compound 3.16 µM, first compound 0.316 µM
[15] = second compound 3.16 µM, first compound 1 µM
[16] = second compound 3.16 µM, first compound 3.16 µM
[17] = second compound 3.16 µM, first compound 10 µM
[18] = second compound 10 µM, first compound 0.0316 µM
[19] = second compound 10 µM, first compound 0.1 µM
[20] = second compound 10 µM, first compound 0.316 µM
[21] = second compound 10 µM, first compound 1 µM
[22] = second compound 10 µM, first compound 3.16 µM
[23] = second compound 10 µM, first compound 10 µM
[24] = second compound 31.6 µM, first compound 0.0316 µM
[25] = second compound 31.6 µM, first compound 0.1 µM
[26] = second compound 31.6 µM, first compound 0.316 µM
[27] = second compound 31.6 µM, first compound 1 µM
[28] = second compound 31.6 µM, first compound 3.16 µM
[29] = second compound 31.6 µM, first compound 10 µM
[30] = second compound 100 µM, first compound 0.0316 µM
[31] = second compound 100 µM, first compound 0.1 µM
[32] = second compound 100 µM, first compound 0.316 µM
[33] = second compound 100 µM, first compound 1 µM
[34] = second compound 100 µM, first compound 3.16 µM
[35] = second compound 100 µM, first compound 10 µM
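Further: spheroids exposed to compound for 7 days before viability readout.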
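Wherever viability, T/C is given: luminescent signal taken as surrogate of viable cell content.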

Cn1ncnc1[C@H]1c2n[nH]c(=O)c3cc(F)cc(c23)N[C@@H]1c1ccc(F)cc1 + Cn1nnc2c(C(N)=O)ncn2c1=O
57 nM: IC50 [4]
544 nM: IC50 [1]
543 nM: IC50 [2]
506 nM: IC50 [3]
active: viability, T/C (second compound 1 µM, first compound 0.949 µM) 8.18% | viability, T/C (second compound 1 µM, first compound 3 µM) 2.42% | viability, T/C (second compound 3.16 µM, first compound 0.949 µM) 3.64% | viability, T/C (second compound 3.16 µM, first compound 3 µM) 2.29% | viability, T/C (second compound 10 µM, first compound 0.949 µM) 2.82% | viability, T/C (second compound 10 µM, first compound 3 µM) 2.58% | viability, T/C (second compound 31.6 µM, first compound 0.3 µM) 2.5% | viability, T/C (second compound 31.6 µM, first compound 0.949 µM) 2.34% | viability, T/C (second compound 31.6 µM, first compound 3 µM) 2.04% | viability, T/C (second compound 100 µM, first compound 0.00949 µM) 3.4% | viability, T/C (second compound 100 µM, first compound 0.03 µM) 2.77% | viability, T/C (second compound 100 µM, first compound 0.0949 µM) 2.49% | viability, T/C (second compound 100 µM, first compound 0.3 µM) 2.57% | viability, T/C (second compound 100 µM, first compound 0.949 µM) 2.68% | viability, T/C (second compound 100 µM, first compound 3 µM) 2.3%
inactive: viability, T/C (second compound 1 µM, first compound 0.00949 µM) 111% | viability, T/C (second compound 1 µM, first compound 0.03 µM) 106% | viability, T/C (second compound 1 µM, first compound 0.0949 µM) 104% | viability, T/C (second compound 1 µM, first compound 0.3 µM) 94.7% | viability, T/C (second compound 3.16 µM, first compound 0.00949 µM) 112% | viability, T/C (second compound 3.16 µM, first compound 0.03 µM) 106% | viability, T/C (second compound 3.16 µM, first compound 0.0949 µM) 106% | viability, T/C (second compound 3.16 µM, first compound 0.3 µM) 99.2% | viability, T/C (second compound 10 µM, first compound 0.00949 µM) 102% | viability, T/C (second compound 10 µM, first compound 0.03 µM) 106% | viability, T/C (second compound 10 µM, first compound 0.0949 µM) 104% | viability, T/C (second compound 10 µM, first compound 0.3 µM) 89.2% | viability, T/C (second compound 31.6 µM, first compound 0.00949 µM) 104% | viability, T/C (second compound 31.6 µM, first compound 0.03 µM) 90.6% | viability, T/C (second compound 31.6 µM, first compound 0.0949 µM) 17.9%
< 9.49 nM: IC50 [5]

COc1ccc([C@@H](O)c2cc(-c3ncnc4cc(N5CCOCC5)ccc34)c(F)cc2Cl)nn1 + Cn1nnc2c(C(N)=O)ncn2c1=O
inactive: viability, T/C [6] 107% | viability, T/C [7] 109% | viability, T/C [8] 109% | viability, T/C [9] 112% | viability, T/C [10] 101% | viability, T/C [11] 92.8% | viability, T/C [12] 105% | viability, T/C [13] 105% | viability, T/C [14] 104% | viability, T/C [15] 107% | viability, T/C [16] 101% | viability, T/C [17] 94.5% | viability, T/C [18] 107% | viability, T/C [19] 106% | viability, T/C [20] 101% | viability, T/C [21] 105% | viability, T/C [22] 105% | viability, T/C [23] 101% | viability, T/C [24] 103% | viability, T/C [25] 111% | viability, T/C [26] 105% | viability, T/C [27] 112% | viability, T/C [28] 110% | viability, T/C [29] 97% | viability, T/C [30] 102% | viability, T/C [31] 110% | viability, T/C [32] 104% | viability, T/C [33] 109% | viability, T/C [34] 96.9% | viability, T/C [35] 84%
> 10000 nM: IC50 [1] | IC50 [2] | IC50 [3] | IC50 [4] | IC50 [5]

Cc1sc2c(c1C)C(c1ccc(Cl)cc1)=NC(CC(=O)Nc1ccc(O)cc1)c1nnc(C)n1-2 (configuration not stated)
inactive: viability, T/C (compound 0.00949 µM) 113% and 114% and 104% | viability, T/C (compound 0.03 µM) 113% and 116% and 107% | viability, T/C (compound 0.0949 µM) 116% and 126% and 112% | viability, T/C (compound 0.3 µM) 86.4% and 108% and 84.2% | viability, T/C (compound 0.949 µM) 41% and 29% and 17.1%
747 nM and 699 nM and 539 nM: IC50 (curve of compound)
active: viability, T/C (compound 3 µM) 4.42% and 2.62% and 6.59%

CC1COCCN1c1cc(-c2ccnn2C)c2ccnc(-c3ccn[nH]3)c2n1 (configuration not stated) + Cn1nnc2c(C(N)=O)ncn2c1=O
< 31.6 nM: IC50 [5]
98.6 nM: IC50 [4]
inactive: viability, T/C [6] 112% | viability, T/C [7] 75.2% | viability, T/C [8] 21% | viability, T/C [12] 120% | viability, T/C [13] 91.1% | viability, T/C [14] 15.7% | viability, T/C [18] 114% | viability, T/C [19] 47.9% | viability, T/C [24] 110% | viability, T/C [25] 49.3% | viability, T/C [30] 12%
187 nM: IC50 [2]
171 nM: IC50 [1]
96.3 nM: IC50 [3]
active: viability, T/C [9] 5.68% | viability, T/C [10] 1.55% | viability, T/C [11] 2.68% | viability, T/C [15] 4.89% | viability, T/C [16] 1.74% | viability, T/C [17] 2.56% | viability, T/C [20] 9.18% | viability, T/C [21] 5.1% | viability, T/C [22] 1.63% | viability, T/C [23] 2.11% | viability, T/C [26] 8.98% | viability, T/C [27] 3.51% | viability, T/C [28] 1.69% | viability, T/C [29] 2.41% | viability, T/C [31] 4.47% | viability, T/C [32] 2.32% | viability, T/C [33] 1.6% | viability, T/C [34] 1.28% | viability, T/C [35] 2.24%
